Reference: US20130059855A1, “CRYSTAL OF DI(ARYLAMINO)ARYL COMPOUND” (ASTELLAS PHARMA INC., priority 2010, published 2013)
Converted amounts (≈) assume the structure as drawn.

Key:
[1] = Long term stability test (storage stability); type: physicochemical; settings: powder X-ray diffraction, DSC, HPLC
Protocol: A04-type crystal samples were separately stored for 3 months under (1) 40° C./75% R.H., (2) 60° C./uncontrolled humidity, and (3) 25° C./uncontrolled humidity/D65 lamp (1000 lux) illumination (2 months under condition (3)), and the change in the crystal form of the samples before and after storage was measured by powder X-ray diffraction and DSC analysis and the change in the purity of the same was confirmed by HPLC measurement (using HPLC Condition 1 or HPLC Condition 2 shown below as the measurement conditions).

Hygroscopicity Test A = type: physicochemical; settings: relative humidity of 93% (KNO3 saturated aqueous solution), 25° C., 7 days
Protocol: About 0.5 g of A04-type crystal was weighed into an (open) weighing bottle with a known mass to obtain a precise mass, then the weighing bottle was placed in a desiccator adjusted to a relative humidity of 93% by KNO3 saturated aqueous solution and stored at 25° C. for 7 days before measuring the change in mass.

[2] = Hygroscopicity Test B (water absorption/dehydration behavior); type: physicochemical; settings: 25° C., humidity range of 5-95% R.H.
Protocol: The water absorption/dehydration behavior of A04-type crystal was assessed using water balance measuring apparatus SGA-X100 (VTI) under the following conditions. Temperature: 25° C., measurement range: 5-95% R.H., measurement interval: 5%.

[3] = Solubility in 50% acetone aqueous solution; type: physicochemical
Protocol: (§1) The solubility of A02-type crystal, A03-type crystal and A04-type crystal was measured for 50% acetone aqueous solution. The solubility is lowest for A04-type crystal at all temperatures.

[4] = Assessment of filterability (constant pressure filtration test, Ruth plot); type: physicochemical; settings: for Filtration Constant B / Cake Average Specific Resistance αm: crystallization slurry, applied pressure 100 kPa; for Filtration Constant B: from inclination of Ruth plot; for Cake Average Specific Resistance αm: constant pressure filtration
Source text: Slurries of A02-type crystal prepared by a method similar to that of the Variation of Reference Example 2 and A04-type crystal prepared by a method similar to that of Example 2 were used to perform constant pressure filteration test, and the cake-average filteration specific resistance αm was obtained by constant pressure filteration formula of Ruth shown in formula (1) to assess filterability. Note that the slurry used in the present test is the crystallization slurry immediately before the crystals are collected by filtration in the preparation of the crystals.
The calculation of cake average specific resistance αm [m/kg] was performed by plotting (Ruth plot) μ [m^3/m^2] and Δθ/Δν [sec/m], obtaining the filtration constant B from the inclination of the obtained line, and inserting the parameters shown in the filtration condition row of Table 1 to formula (2).

[5] = Assessment of the stability level (solubility, transformation, DSC); type: physicochemical; settings: all temperature range; A01- to A05-type crystals compared
Protocol: as §1
(§2) A05-type crystal was subjected to slurry agitation under room temperature and its solvent-mediated transformation was studied.
The schematic diagram showing the interrelation of the stability levels of the crystals based on the above result is presented as FIG. 4.

[6] = Study of solvent-mediated transformation; type: physicochemical; settings: slurry agitation in methyl ethyl ketone under room temperature
Source text: as §2

EML4-ALK fusion protein = settings: reported in Patent Document 1 (WO 2009/008371); cited from earlier work
mutant EGFR protein = settings: reported in Patent Document 1 (WO 2009/008371); cited from earlier work

Row | SMILES | Solubility ([3]; 25° C.) [mg/mL] | Solubility ([3]; 40° C.) [mg/mL] | Solubility ([3]; 55° C.) [mg/mL] | Filtration Constant B [4] | Cake Average Specific Resistance αm [4] | also measured
1 | COc1cc(N2CCC(N3CCN(C)CC3)CC2)ccc1Nc1ncnc(Nc2ccccc2S(=O)(=O)C(C)C)n1 [A04-type crystal, N-{2-methoxy-4-[4-(4-methylpiperazin-1-yl)piperidin-1-yl]phenyl}-N′-[2-(propane-2-sulfonyl)phenyl]-1,3,5-triazine-2,4-diamine] | 4.5 (≈ 7.75 mM) | 8.0 (≈ 13.8 mM) | 13.0 (≈ 22.4 mM) | 2201.7 | 8.43×10^8 m/kg | change in the crystal form or the purity after storage ([1]; 25° C./uncontrolled humidity/D65 lamp (1000 lux) illumination, 2 months): no significant change; change in the crystal form or the purity after storage ([1]; 40° C./75% R.H., 3 months): no significant change; change in the crystal form or the purity after storage ([1]; 60° C./uncontrolled humidity, 3 months): no significant change; change in mass (hygroscopicity) (Hygroscopicity Test A): no significant change in mass; weight change through water absorption and dehydration [2]: lower than 0.1%; thermodynamic stability level among crystal forms of Compound A [5]: most stable crystal
2 | COc1cc(N2CCC(N3CCN(C)CC3)CC2)ccc1Nc1ncnc(Nc2ccccc2S(=O)(=O)C(C)C)n1 [A02-type crystal, N-{2-methoxy-4-[4-(4-methylpiperazin-1-yl)piperidin-1-yl]phenyl}-N′-[2-(propane-2-sulfonyl)phenyl]-1,3,5-triazine-2,4-diamine] | 13.6 (≈ 23.4 mM) | 17.7 (≈ 30.5 mM) | 30.8 (≈ 53 mM) | 81406 | 1.31×10^11 m/kg | cake average specific resistance relative to A04-type crystal ([4]; ratio of A02-type crystal to A04-type crystal, filtration time proportional): about 155 times
3 | COc1cc(N2CCC(N3CCN(C)CC3)CC2)ccc1Nc1ncnc(Nc2ccccc2S(=O)(=O)C(C)C)n1 [A05-type crystal, N-{2-methoxy-4-[4-(4-methylpiperazin-1-yl)piperidin-1-yl]phenyl}-N′-[2-(propane-2-sulfonyl)phenyl]-1,3,5-triazine-2,4-diamine] |  |  |  |  |  | solvent-mediated transformation [6]: transformed to A04-type crystal after 1 minute of agitation
4 | COc1cc(N2CCC(N3CCN(C)CC3)CC2)ccc1Nc1ncnc(Nc2ccccc2S(=O)(=O)C(C)C)n1 [A03-type crystal, N-{2-methoxy-4-[4-(4-methylpiperazin-1-yl)piperidin-1-yl]phenyl}-N′-[2-(propane-2-sulfonyl)phenyl]-1,3,5-triazine-2,4-diamine] | 5.3 (≈ 9.13 mM) | 8.5 (≈ 14.6 mM) | 16.1 (≈ 27.7 mM) |  |  | 
5 | COc1cc(N2CCC(N3CCN(C)CC3)CC2)ccc1Nc1ncnc(Nc2ccccc2S(=O)(=O)C(C)C)n1 [Compound A, N-{2-methoxy-4-[4-(4-methylpiperazin-1-yl)piperidin-1-yl]phenyl}-N′-[2-(propane-2-sulfonyl)phenyl]-1,3,5-triazine-2,4-diamine] |  |  |  |  |  | inhibitory activity against the kinase activity of EML4-ALK fusion protein (EML4-ALK fusion protein): good inhibitory activity; inhibitory activity against the kinase activity of mutant EGFR protein (mutant EGFR protein): good inhibitory activity
